From US20250066371A1, “FLUOROALKOXYALKYLENE-DIHYDROIMIDAZO[5,1-D]TETRAZINONE COMPOUNDS AND RELATED COMPOUNDS AND THEIR USE IN TREATING MEDICAL CONDITIONS” (priority 2023, published 2025)
Where two headings read alike, the source gives them in different places.

How the values were obtained:
Type in all cases: cell-based
[1] = test system: isogenic LN229 gliobastoma cells; assay: Anti-cancer assay against isogenic LN229 cell line set, maximum 200 μM (Example 46); conditions: concentration up to 200 μM
Method: Isogenic LN229 gliobastoma cells were maintained in Dulbecco's Modified Eagle Medium (DMEM) supplemented with 10% fetal bovine serum, 1% Penicillin/Streptomycin, and 0.1% Fungin. DAY 0: Cells were plated into sterile 96-well plates (Corning Costar 96-well) at a concentration of 500 cells/well using a Multichannel pipettor. Then, assay plates were incubated overnight in a 37° C. 5% CO2 incubator. DAY 1: Compounds were prepared as 50 mM stocks in dimethyl sulfoxide (DMSO) and stored protected from light at room temperature (RT) until use. Prior to compound addition, a two-fold serial dilution of compound stock solutions was performed in DMSO from 30 mM to 0.117 mM in a 96-well Master plate. Vehicle control wells contained DMSO. 97 μL of media was added to each well of a new 96-well plate (Daughter plate) and 3 μL of drug solution from Master plate was added to corresponding wells in the Daughter plate resulting in a 3× plate. Three replicate dilution curves of each compound were run on each assay plate. […]
Assay plates were incubated for 120 hours at 37° C. in a humidified 5% CO2 incubator. DAY 5: Following incubation, cells were fixed with 4% paraformaldehyde and stained with Hoechst dye for nuclei visualization. […] Images were acquired on a BioTek Cytation 5 Cell Imaging Multimode Reader and quantified using Cell Profiler image analysis software. […]

[2] = test system: LN229 gliobastoma cells MGMT+/MMR+; assay: Anti-cancer assay, isogenic LN229 cells, nuclei count (Example 43); conditions: Homo sapiens, read-out: MGMT+ MMR+ Activity
Description: (§1) Cytotoxicity of the compounds may be measured in short-term cell viability assays against four isogenic LN229 glioblastoma cell lines engineered to be proficient or deficient in MGMT and/or MMR activity by using short hairpin RNAs (shRNAs) targeting MSH2. This approach allows for determination of the relationship between MGMT status, MMR status, and compound activity. LN229 cells are maintained in Dulbecco's Modified Eagle Medium (DMEM) supplemented with 10% fetal bovine serum, 1% Penicillin/Streptomycin, and 0.1% Fungin. DAY 0: Cells are plated into sterile 96-well plates (Corning Costar 96-well) at a concentration of 500 cells/well using a Multichannel pipettor. Then, assay plates are incubated overnight in a 37° C. 5% CO2 incubator. DAY 1: Compounds are prepared as 50 mM stocks in dimethyl sulfoxide (DMSO) and stored protected from light at room temperature (RT) until use. Prior to compound addition, a two-fold serial dilution of compound stock solutions is performed in DMSO from 30 mM to 0.117 mM in a 96-well Master plate. Vehicle control wells contain DMSO. 97 μL of media is added to each well of a new 96-well plate (Daughter plate) and 3 μL of drug solution from Master plate is added to corresponding wells in the Daughter plate resulting in a 3× plate. Three replicate dilution curves of each compound are run on each assay plate. The final concentration of compounds ranges from 300 μM to 1.171 μM (9-point, 2-fold dilution dose response curve), and the final DMSO concentration is 1%.
(§2) Assay plates are incubated for 120 hours at 37° C. in a humidified 5% CO2 incubator. DAY 5: Following incubation, cells are fixed with 4% paraformaldehyde and stained with Hoechst dye for nuclei visualization. Fixation, staining and washing is performed by using a Thermo Scientific Multidrop Combi. Images are acquired on a BioTek Cytation 5 Cell Imaging Multimode Reader and quantified using Cell Profiler image analysis software. Raw cell count data for test compounds are normalized to percent viability relative to the DMSO vehicle control.
(§3) Isogenic LN229 gliobastoma cells were maintained in Dulbecco's Modified Eagle Medium (DMEM) supplemented with 10% fetal bovine serum, 1% Penicillin/Streptomycin, and 0.1% Fungin. DAY 0: Cells were plated into sterile 96-well plates (Corning Costar 96-well) at a concentration of 500 cells/well using a Multichannel pipettor. Then, assay plates were incubated overnight in a 37° C. 5% CO2 incubator. DAY 1: Compounds were prepared as 50 mM stocks in dimethyl sulfoxide (DMSO) and stored protected from light at room temperature (RT) until use. Prior to compound addition, a two-fold serial dilution of compound stock solutions was performed in DMSO from 30 mM to 0.117 mM in a 96-well Master plate. Vehicle control wells contained DMSO. 97 μL of media was added to each well of a new 96-well plate (Daughter plate) and 3 μL of drug solution from Master plate was added to corresponding wells in the Daughter plate resulting in a 3× plate. Three replicate dilution curves of each compound were run on each assay plate. The final concentration of compounds ranged from 300 μM to 1.171 μM (9-point, 2-fold dilution dose response curve), and the final DMSO concentration was 1%.
as §2, with “plates were” for “plates are”, “cells were” for “cells are”, “washing was” for “washing is”, “Images were” for “Images are”, “compounds were” for “compounds are”

[3] = test system: LN229 gliobastoma cells MGMT+/MMR−; assay: as above; conditions: Homo sapiens, read-out: MGMT+ MMR− Activity
Description: as §1, §2, §3
as §2, with “plates were” for “plates are”, “cells were” for “cells are”, “washing was” for “washing is”, “Images were” for “Images are”, “compounds were” for “compounds are”

[4] = test system: LN229 gliobastoma cells MGMT−/MMR+; assay: Anti-cancer assay, isogenic LN229 cells, nuclei count (Examples 43, 46); conditions: Homo sapiens, read-out: MGMT− MMR+ Activity
Description: as §1, §2, §3
as §2, with “plates were” for “plates are”, “cells were” for “cells are”, “washing was” for “washing is”, “Images were” for “Images are”, “compounds were” for “compounds are”, “control. […]” for “control.”

[5] = test system: LN229 gliobastoma cells MGMT−/MMR−; assay: as above; conditions: Homo sapiens, read-out: MGMT− MMR− Activity
Description: as §1, §2, §3
as §2, with “plates were” for “plates are”, “cells were” for “cells are”, “washing was” for “washing is”, “Images were” for “Images are”, “compounds were” for “compounds are”, “control. […]” for “control.”

[6] = LN-229, LN229 MGMT+/MMR+, 120 hours
[7] = LN-229, LN229 MGMT+/MMR−, 120 hours
[8] = LN-229, LN229 MGMT−/MMR+, 120 hours
[9] = LN-229, LN229 MGMT−/MMR−, 120 hours

Row | SMILES | anti-cancer activity against LN229 isogenic cell line set [1] | IC50 [2, 6] | IC50 [3, 7] | IC50 [4, 8] | IC50 [5, 9] | IC50 ([2]; LN-229, 120 h) | IC50 ([3]; LN-229, 120 h) | IC50 ([4]; LN-229, 120 h) | IC50 ([5]; LN-229, 120 h)
1 | COCCn1nnc2c(C(N)=O)ncn2c1=O [Compound A2] | no detectable anti-cancer activity |  |  |  |  |  |  |  | 
2 | Cc1cnc(-c2ncn3c(=O)n(CCOC(F)(F)F)nnc23)o1 [II-3, 8-(5-Methyloxazol-2-yl)-3-(2-(trifluoromethoxy)ethyl) imidazo[5,1-d][1,2,3,5]tetrazin-4(3H)-one] |  | 20 to 50 µM | 20 to 50 µM | 20 to 50 µM | 20 to 50 µM |  |  |  | 
3 | O=c1n(CCOC(F)(F)F)nnc2c(-c3nc4ccccc4o3)ncn12 [II-4, 8-(benzo[d]oxazol-2-yl)-3-(2-(trifluoromethoxy)ethyl) imidazo[5,1-d][1,2,3,5]tetrazin-4(3H)-one] |  | < 20 µM | < 20 µM | 20 to 50 µM | < 20 µM |  |  |  | 
4 | O=c1n(CCOC(F)(F)F)nnc2c(-c3ccccc3)ncn12 [II-5, 8-Phenyl-3-(2-(trifluoromethoxy)ethyl)imidazo[5,1-d][1,2,3,5]tetrazin-4(3H)-one] |  | < 20 µM | < 20 µM | < 20 µM | 20 to 50 µM |  |  |  | 
5 | Cc1cnc(-c2ncn3c(=O)n(CCOC(F)(F)F)nnc23)s1 [II-6, 8-(5-Methylthiazol-2-yl)-3-(2-(trifluoromethoxy)ethyl)imidazo[5,1-d][1,2,3,5]tetrazin-4(3H)-one] |  | < 20 µM | < 20 µM | 20 to 50 µM | < 20 µM |  |  |  | 
6 | O=NN(CCOC(F)(F)F)C(=O)NC1CCCCC1 [IV-1, 3-Cyclohexyl-1-nitroso-1-(2-(trifluoromethoxy)ethyl)urea] |  |  |  |  |  | 20 to 50 µM | 20 to 50 µM | 20 to 50 µM | 20 to 50 µM
7 | O=NN(CCOC(F)(F)F)C(=O)NCCOC(F)(F)F [IV-2, 1-Nitroso-1,3-bis(2-(trifluoromethoxy)ethyl)urea] |  |  |  |  |  | > 100 µM | > 100 µM | 50 to 100 µM | 20 to 50 µM
